Measurements: patent publication EP1054888B1 (priority 1998, dated 1999)
Values after ≈ are worked out from the molar mass of the structure shown.

Assays:
Assay in all cases: microbe, parasite or virus in culture
Type in all cases: cell-based
Alternaria solani = details: read-out: MIC (Minimum Inhibitory Concentration) ALTESO
Botrytis cinerea = details: read-out: MIC (Minimum Inhibitory Concentration) BOTRCI
Leptosphaeria nodorum = details: Parastagonospora nodorum, read-out: MIC (Minimum Inhibitory Concentration) LEPTNO
Phytophthora infestans = details: read-out: MIC (Minimum Inhibitory Concentration) PHYTIN
[1] = tested on: Magnaporthe grisea f. sp. oryzae; details: Pyricularia oryzae, read-out: MIC (Minimum Inhibitory Concentration) PYRIOR, Table II; total inhibition of mycelial growth, V8 juice nutrient solution, 6-12 days at 18-25°C, visual inspection
Pyrenophora teres = details: read-out: MIC (Minimum Inhibitory Concentration) PYRNTE
Rhizoctonia solani = details: read-out: MIC (Minimum Inhibitory Concentration) RHIZSO

Row | SMILES | MIC (Alternaria solani) [µg/mL] | MIC (Botrytis cinerea) [µg/mL] | MIC (Leptosphaeria nodorum) [µg/mL] | MIC (Phytophthora infestans) [µg/mL] | MIC [1] [µg/mL] | MIC (Pyrenophora teres) [µg/mL] | MIC (Rhizoctonia solani) [µg/mL]
1 | CCC(C)c1c(-c2c(F)cccc2Cl)c(Cl)nc2ncnn12 (stereo not drawn) [Example 28] | 6.25 (≈ 18.4 µM) | 3.13 (≈ 9.23 µM) | > 100 | > 100 | 1.56 (≈ 4.6 µM) | 6.25 (≈ 18.4 µM) | 0.78 (≈ 2.3 µM)
2 | [N-]=[N+]=Nc1nc2ncnn2c(C2CCCCC2)c1-c1c(F)cccc1Cl [Example 45] | 100 (≈ 269 µM) | > 100 | > 100 | > 100 | 12.5 (≈ 33.6 µM) | > 100 | > 100
3 | COc1nc2ncnn2c(C2CCCCC2)c1-c1c(F)cccc1Cl [Example 38] | 100 (≈ 277 µM) | > 100 | > 100 | > 100 | 0.78 (≈ 2.16 µM) | > 100 | > 100
4 | CCCc1c(-c2c(F)cccc2Cl)c(Cl)nc2ncnn12 [Example 25] | 1.56 (≈ 4.8 µM) | 0.78 (≈ 2.4 µM) | > 100 | 12.5 (≈ 38.4 µM) | 0.1 (≈ 0.308 µM) | 3.13 (≈ 9.63 µM) | 1.56 (≈ 4.8 µM)
5 | COc1cc(F)c(-c2c(Cl)nc3ncnn3c2C2CCCO2)c(F)c1 (stereo not drawn) [Example 95] | 0.2 (≈ 0.545 µM) | 0.78 (≈ 2.13 µM) | 3.13 (≈ 8.53 µM) | 100 (≈ 273 µM) | 0.1 (≈ 0.273 µM) |  | 3.13 (≈ 8.53 µM)
6 | COc1nc2ncnn2c(C2CCCCC2)c1-c1c(F)cccc1F [Example 7, 5-methoxy-7-cyclohexyl-6-(2,6-difluorophenyl)-1,2,4-triazolo[1,5a]pyrimidine] | 1.56 (≈ 4.53 µM) | 12.5 (≈ 36.3 µM) | > 100 | > 100 | 1.56 (≈ 4.53 µM) | > 100 | > 100
7 | CCc1c(-c2c(F)cccc2Cl)c(Cl)nc2ncnn12 [Example 24] | 12.5 (≈ 40.2 µM) | 6.25 (≈ 20.1 µM) | 3.13 (≈ 10.1 µM) | > 100 | < 0.05 | > 100 | 6.25 (≈ 20.1 µM)
8 | COc1cc(F)c(-c2c(Cl)nc3ncnn3c2[C@H]2CC[C@@H](F)CC2)c(F)c1 [Example 87] | < 0.05 | < 0.05 | 0.39 (≈ 0.983 µM) | > 100 | < 0.05 |  | > 100
9 | COc1cc(F)c(-c2c(Cl)nc3ncnn3c2C2CCCC2)c(F)c1 [Example 97] | < 0.05 | 0.2 (≈ 0.548 µM) | 6.25 (≈ 17.1 µM) | > 100 | 0.1 (≈ 0.274 µM) |  | 0.39 (≈ 1.07 µM)
10 | Cc1ccccc1-c1c(-c2c(F)cccc2Cl)c(Cl)nc2ncnn12 [Example 35] | 3.13 (≈ 8.39 µM) | 3.13 (≈ 8.39 µM) | 6.25 (≈ 16.7 µM) | 25 (≈ 67 µM) | 0.78 (≈ 2.09 µM) | > 100 | 3.13 (≈ 8.39 µM)
11 | CCCCc1c(-c2ccccc2C)c(Cl)nc2ncnn12 [Example 19] | 1.56 (≈ 5.19 µM) | 12.5 (≈ 41.6 µM) | 12.5 (≈ 41.6 µM) | 50 (≈ 166 µM) | 0.78 (≈ 2.59 µM) | 6.25 (≈ 20.8 µM) | > 100
12 | CN1C=C(c2c(-c3c(F)cc(F)cc3F)c(Cl)nc3ncnn23)CCC1 [Example 6, 5-chloro-7-(N-methyl-2,3-dehydropiperid-3-yl)-6-(2,4,6-trifluorophenyl)-1,2,4-triazolo[1,5a]pyrimidine] | 3.13 (≈ 8.24 µM) | 25 (≈ 65.8 µM) | 25 (≈ 65.8 µM) | > 100 | 0.78 (≈ 2.05 µM) |  | > 100
13 | Clc1ccccc1-c1c(Cl)nc2ncnn2c1C1CCCCC1 [Example 43] | 1.56 (≈ 4.49 µM) | > 100 | 1.56 (≈ 4.49 µM) | > 100 | 0.39 (≈ 1.12 µM) | > 100 | > 100
14 | COc1cc(F)c(-c2c(Cl)nc3ncnn3c2C2CCCCC2)c(F)c1 [Example 68] | < 0.05 | < 0.05 | 0.39 (≈ 1.03 µM) | > 100 | < 0.05 |  | 0.78 (≈ 2.06 µM)
15 | COc1cc(F)c(-c2c(Cl)nc3ncnn3c2CC(C)C)c(F)c1 [Example 94] | 0.1 (≈ 0.283 µM) | 0.2 (≈ 0.567 µM) | 3.13 (≈ 8.87 µM) | > 100 | < 0.05 |  | 0.2 (≈ 0.567 µM)
16 | CC1CCC(c2c(-c3c(F)cccc3Cl)c(Cl)nc3ncnn23)CC1 (stereo not drawn) [Example 2, 5-chloro-7-(4-methylcyclohexyl)-6-(2-chloro-6-fluorophenyl)-1,2,4-triazolo[1,5a]pyrimidine] | 0.1 (≈ 0.264 µM) | 0.2 (≈ 0.527 µM) |  | > 100 | < 0.05 | 1.56 (≈ 4.11 µM) | > 100
17 | COc1cc(F)c(-c2c(OC)nc3ncnn3c2C2CCCCC2)c(F)c1 [Example 69] | < 0.05 | < 0.05 | 1.56 (≈ 4.17 µM) | > 100 | < 0.05 |  | 3.13 (≈ 8.36 µM)
18 | CCCCc1c(-c2c(F)cc(OC)cc2F)c(Cl)nc2ncnn12 [Example 96] | < 0.05 | 0.1 (≈ 0.283 µM) | 3.13 (≈ 8.87 µM) | > 100 | < 0.05 |  | 0.78 (≈ 2.21 µM)
19 | CCCCc1c(-c2ccccc2)c(Cl)nc2ncnn12 [Example 23] | 6.25 (≈ 21.8 µM) | > 100 | > 100 | 50 (≈ 174 µM) | 25 (≈ 87.2 µM) | > 100 | > 100

Row | SMILES | MIC (Alternaria solani) [µg/mL] | MIC (Botrytis cinerea) [µg/mL] | MIC (Leptosphaeria nodorum) [µg/mL] | MIC (Phytophthora infestans) [µg/mL] | MIC [1] [µg/mL] | MIC (Pyrenophora teres) [µg/mL] | MIC (Rhizoctonia solani) [µg/mL]
20 | COc1nc2ncnn2c(C2CCCCC2)c1-c1c(F)cc(F)cc1F [Example 49] | 0.2 (≈ 0.552 µM) |  | > 100 | > 100 | 0.39 (≈ 1.08 µM) | 1.56 (≈ 4.31 µM) | > 100
21 | Cc1cccc(C)c1-c1c(-c2c(F)cccc2Cl)c(Cl)nc2ncnn12 [Example 33] | > 100 | > 100 | > 100 | 6.25 (≈ 16.1 µM) | 12.5 (≈ 32.3 µM) | > 100 | > 100
22 | Fc1cccc(Cl)c1-c1c(Cl)nc2ncnn2c1C1CCCC1 [Example 29] | 0.78 (≈ 2.22 µM) | 1.56 (≈ 4.44 µM) | 0.39 (≈ 1.11 µM) | > 100 | < 0.05 | 0.78 (≈ 2.22 µM) | 0.78 (≈ 2.22 µM)
23 | COc1cc(F)c(-c2c(OC)nc3ncnn3c2CC(C)C)c(F)c1 [Example 100] | 0.39 (≈ 1.12 µM) | 0.78 (≈ 2.24 µM) | > 100 | > 100 | < 0.05 |  | 1.56 (≈ 4.48 µM)
24 | CC(C)Cc1c(-c2c(F)cccc2Cl)c(Cl)nc2ncnn12 [Example 26] | 0.78 (≈ 2.3 µM) | 0.2 (≈ 0.59 µM) | 0.39 (≈ 1.15 µM) | > 100 | < 0.05 | 3.13 (≈ 9.23 µM) | 0.78 (≈ 2.3 µM)
25 | Fc1cc(F)c(-c2c(Cl)nc3ncnn3c2C2CCCCC2)c(F)c1 [Example 44] | < 0.05 | < 0.05 | 0.2 (≈ 0.545 µM) | > 100 | < 0.05 | 0.2 (≈ 0.545 µM) | 0.78 (≈ 2.13 µM)
26 | CCCc1c(-c2c(F)cc(OC)cc2F)c(Cl)nc2ncnn12 [Example 93] | 0.2 (≈ 0.59 µM) | 0.2 (≈ 0.59 µM) | 6.25 (≈ 18.5 µM) | 100 (≈ 295 µM) | < 0.05 |  | 0.39 (≈ 1.15 µM)
27 | CCCc1c(-c2c(F)cc(OC)cc2F)c(OC)nc2ncnn12 [Example 98] | 1.56 (≈ 4.67 µM) | 3.13 (≈ 9.36 µM) | 100 (≈ 299 µM) | > 100 | 0.2 (≈ 0.598 µM) |  | 1.56 (≈ 4.67 µM)
28 | CC(=O)OC1CCC(c2c(-c3c(F)cc(F)cc3F)c(Cl)nc3ncnn23)CC1 (stereo not drawn) [Example 84] | 3.13 (≈ 7.37 µM) | 12.5 (≈ 29.4 µM) | 12.5 (≈ 29.4 µM) | > 100 | 3.13 (≈ 7.37 µM) |  | 100 (≈ 235 µM)
29 | Fc1cccc(Cl)c1-c1c(Cl)nc2ncnn2c1C1CCCCC1 [Example 30] | < 0.05 | < 0.05 | 25 (≈ 68.4 µM) | > 100 | < 0.05 | 0.2 (≈ 0.548 µM) | > 100
30 | Fc1cc(F)c(-c2c(Cl)nc3ncnn3c2[C@H]2CC[C@@H](F)CC2)c(F)c1 [Example 71] | < 0.05 | 0.2 (≈ 0.52 µM) | 0.78 (≈ 2.03 µM) | > 100 | < 0.05 |  | 6.25 (≈ 16.2 µM)
31 | COc1cc(F)c(-c2c(OC)nc3ncnn3c2C2CCCC2)c(F)c1 [Example 99] | 0.39 (≈ 1.08 µM) | 0.78 (≈ 2.16 µM) | > 100 | > 100 | 0.39 (≈ 1.08 µM) |  | 1.56 (≈ 4.33 µM)
32 | Fc1ccccc1-c1c(Cl)nc2ncnn2c1C1CCCCC1 [Example 42] | 0.39 (≈ 1.18 µM) | 1.56 (≈ 4.72 µM) | 0.39 (≈ 1.18 µM) | > 100 | 0.39 (≈ 1.18 µM) | 3.13 (≈ 9.46 µM) | > 100
33 | COc1cc(F)c(-c2c(OC)nc3ncnn3c2[C@H]2CC[C@@H](F)CC2)c(F)c1 [Example 89] | < 0.05 | 1.56 (≈ 3.98 µM) | 6.25 (≈ 15.9 µM) | > 100 | < 0.05 |  | 12.5 (≈ 31.9 µM)
34 | COc1nc2ncnn2c([C@H]2CC[C@@H](F)CC2)c1-c1c(F)cc(F)cc1F [Example 75] | 1.56 (≈ 4.1 µM) | 6.25 (≈ 16.4 µM) | 12.5 (≈ 32.9 µM) | > 100 | 0.39 (≈ 1.03 µM) |  | > 100
35 | COc1cc(F)c(-c2c(Cl)nc3ncnn3c2C2CC=CCC2)c(F)c1 (stereo not drawn) [Example 74] | < 0.05 | < 0.05 | 0.78 (≈ 2.07 µM) | > 100 | < 0.05 |  | 0.39 (≈ 1.04 µM)
36 | CCCCCCc1c(-c2c(F)cccc2Cl)c(Cl)nc2ncnn12 [Example 1, 5-chloro-7-n-hexyl-6-(2-chloro-6-fluorophenyl)-1,2,4-triazolo[1,5a]pyrimidine] |  |  | 12.5 (≈ 34 µM) | 100 (≈ 272 µM) | 1.56 (≈ 4.25 µM) | 3.13 (≈ 8.52 µM) | 
37 | Fc1cccc(Cl)c1-c1c(F)nc2ncnn2c1C1CCCCC1 [Example 37] |  |  | > 100 | > 100 |  | > 100 | > 100
38 | COc1cc(F)c(-c2c(Cl)nc3ncnn3c2C2CCC(OC(C)=O)CC2)c(F)c1 (stereo not drawn) [Example 85] | 0.78 (≈ 1.79 µM) | 1.56 (≈ 3.57 µM) | 6.25 (≈ 14.3 µM) | 25 (≈ 57.2 µM) | 0.78 (≈ 1.79 µM) |  | > 100
